One series has as its system HCMV (Davis). The series can be described thus: Anti-HCMV screening test: inhibition of the cytopathogenic effect in HELF cell cultures. Type of series: cell-based, human cytomegalovirus. The settings on record: for IC50: HCMV (Davis)-infected HELF cells, 6 days, concentration causing 50% inhibition of the CPE; for SI: selectivity index, defined by footnote 3 (drawing 26), HELF CIC50 versus HCMV IC50. On the procedure:
(§1) The anti-HCMV effect was determined in a screening test system in 96-well microtitre plates, making use of human embryonic lung fibroblasts (HELF) cell cultures. The influence of the substances on the spread of the cytopathogenic effect was compared with that of the reference substance ganciclovir (Cymevene® sodium), a clinically approved anti-HCMV chemotherapeutic agent.
(§2) The substances dissolved in DMSO (dimethyl sulphoxide) (at 50 mM concentration) are investigated on microtitre plates (96-well) at final concentrations of 1,000-0.00048 μM (micromolar) in double determinations (4 substances/plate). The conditions are such that both toxic and cytostatic effects of the substances are recorded. Once the appropriate substance dilutions (1:2) have been made on the microtitre plate, a suspension of 50-100 HCMV-infected HELF cells and 3×10^4 non-infected HELF cells in Eagle's MEM (minimal essential medium) containing 10% foetal calf serum is added to each well and the plates are then incubated at 37° C. in a CO2 incubator for a period of 6 days. […] After staining with neutral red and fixing with formalin/methanol, the plates are evaluated with the aid of a projection microscope (plaque viewer).
(In general: Damage to the host cells serves as the signal in cytopathic effect assays.)

The test system of series [1] is human embryonic lung fibroblasts (HELF). The experiment in a line: Anti-cellular effect on HELF cells in the anti-HCMV screening test. On the procedure: as §1, §2

Like-named read-outs stand apart in the source and are kept apart here.

In the case of `Cc1ccc(S(=O)(=O)NC(=N)NCCC[C@H](NC(=O)OCc2ccccc2)C(=O)N[C@H](C(=O)NC(C=O)Cc2ccccc2)C(C)(C)C)cc1` (stereo partly drawn) [Example 50, (2R,S)-2-[Nα-(Benzyloxycarbonyl)-N^G -(4-methyl-phenylsulphonyl)-S-arginyl-S-(tert-butyl)glycinyl]amino-3-phenyl-propan-1-al], in the series on HCMV (Davis), it took 0.004 µM to reach half-maximal inhibition (IC50) and the SI turned out to be 700. Further, in series [1], the “CIC50 (HELF)” value is 2.8 µM.
As to `Nc1nc(O)c2ncn(COC(CO)CO)c2n1` [Cymevene.Na, ganciclovir], the IC50 (as a rule, the concentration that inhibits the measured activity by half) in the series with HCMV (Davis) (Human betaherpesvirus 5, 144 h) was in the range of 2 to 4 µM. Further, the SI with HCMV (Davis) is listed as 32-64. Further, the “CIC50 (HELF)” value in series [1] (HELF cells, 6 days incubation, highest concentration which does not show any obvious anticellular effect) came out at 125 µM.

These data come from US5646121A, “Pseudopeptides with antiviral activity” (Bayer Aktiengesellschaft, priority 1993, dated 1997).
